Assay results taken from ChEMBL document CHEMBL4680324, “Discovery of natural product ellagic acid as a potent CD73 and CD39 dual inhibitor” (Bioorg Med Chem Lett, 2021).

Tests used:
5'-nucleotidase [1] = target: 5'-nucleotidase (Homo sapiens, UniProt P21589); test: Inhibition of human CD73
[2] = target: T1, Ectonucleoside triphosphate diphosphohydrolase 1 (Mus musculus, UniProt P55772); test: Inhibition of mouse CD39
T1 sequence (P55772 whole entry): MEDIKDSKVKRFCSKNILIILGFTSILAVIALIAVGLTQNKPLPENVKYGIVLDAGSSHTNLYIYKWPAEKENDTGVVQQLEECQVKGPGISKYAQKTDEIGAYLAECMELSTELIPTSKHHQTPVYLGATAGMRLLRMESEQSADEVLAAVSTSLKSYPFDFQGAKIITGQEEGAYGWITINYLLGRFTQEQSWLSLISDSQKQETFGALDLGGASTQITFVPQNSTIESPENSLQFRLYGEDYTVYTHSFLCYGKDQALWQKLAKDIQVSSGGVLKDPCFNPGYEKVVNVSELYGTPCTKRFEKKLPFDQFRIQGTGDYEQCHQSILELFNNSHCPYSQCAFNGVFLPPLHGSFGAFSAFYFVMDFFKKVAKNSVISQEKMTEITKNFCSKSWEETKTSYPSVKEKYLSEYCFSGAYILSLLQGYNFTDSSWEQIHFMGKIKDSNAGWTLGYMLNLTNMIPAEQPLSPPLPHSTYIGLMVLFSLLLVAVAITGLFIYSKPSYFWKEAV

5'-nucleotidase [3] = target: T2, 5'-nucleotidase (Mus musculus, UniProt Q61503); test: Inhibition of mouse CD73
T2 sequence (Q61503 whole entry): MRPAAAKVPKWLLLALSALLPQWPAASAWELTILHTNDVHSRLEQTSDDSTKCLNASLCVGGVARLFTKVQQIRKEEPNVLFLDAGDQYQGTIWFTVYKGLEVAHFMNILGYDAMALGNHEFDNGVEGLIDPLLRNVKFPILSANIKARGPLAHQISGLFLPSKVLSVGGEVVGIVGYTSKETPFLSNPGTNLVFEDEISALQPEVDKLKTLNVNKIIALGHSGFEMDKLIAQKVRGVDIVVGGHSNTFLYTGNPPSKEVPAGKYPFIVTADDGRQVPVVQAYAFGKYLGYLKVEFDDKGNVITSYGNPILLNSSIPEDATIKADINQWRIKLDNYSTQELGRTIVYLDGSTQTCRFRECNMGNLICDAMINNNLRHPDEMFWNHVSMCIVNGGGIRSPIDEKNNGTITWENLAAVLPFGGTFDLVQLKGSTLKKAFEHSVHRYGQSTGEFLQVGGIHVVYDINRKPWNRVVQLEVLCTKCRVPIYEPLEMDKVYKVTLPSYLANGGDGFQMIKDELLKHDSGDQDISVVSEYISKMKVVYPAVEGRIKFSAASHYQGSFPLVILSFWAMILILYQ

MIA PaCa-2 = test: Cytotoxicity against human MIA PaCa-2 cells expressing CD73 assessed as reduction in cell viability by CCK8 assay; format: functional, cell-based
MDA-MB-231 = test: Cytotoxicity against human MDA-MB-231 cells expressing CD73 assessed as reduction in cell viability by CCK8 assay; format: functional, cell-based
[4] = Selectivity ratio of IC50 for inhibition of human CD73 to IC50 for inhibition of mouse CD39
[5] = Selectivity ratio of IC50 for inhibition of human CD73 to IC50 for inhibition of mouse CD73

Chain of 5'-nucleotidase (Homo sapiens, UniProt P21589) (P21589 whole entry): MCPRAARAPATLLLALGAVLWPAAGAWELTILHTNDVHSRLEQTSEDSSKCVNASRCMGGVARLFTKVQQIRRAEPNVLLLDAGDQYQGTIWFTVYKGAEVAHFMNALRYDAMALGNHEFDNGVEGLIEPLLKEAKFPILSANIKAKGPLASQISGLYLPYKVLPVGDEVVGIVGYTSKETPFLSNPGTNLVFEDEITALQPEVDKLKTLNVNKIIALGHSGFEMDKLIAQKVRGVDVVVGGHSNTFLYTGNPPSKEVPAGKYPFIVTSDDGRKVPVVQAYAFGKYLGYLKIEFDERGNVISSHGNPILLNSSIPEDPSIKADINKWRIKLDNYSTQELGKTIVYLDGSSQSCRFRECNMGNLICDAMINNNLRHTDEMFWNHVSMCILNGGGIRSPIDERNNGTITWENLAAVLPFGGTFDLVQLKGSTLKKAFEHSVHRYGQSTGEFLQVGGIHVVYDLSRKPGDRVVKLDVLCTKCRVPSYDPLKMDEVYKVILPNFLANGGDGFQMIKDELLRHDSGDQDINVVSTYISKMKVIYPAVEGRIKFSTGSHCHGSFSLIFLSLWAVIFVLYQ

| SMILES | IC50 (5'-nucleotidase [1]) [µM] | IC50 [2] [µM] | IC50 (5'-nucleotidase [3]) [µM] | IC50 (MIA PaCa-2) [µM] | IC50 (MDA-MB-231) [µM] | Ratio IC50 [4] | Ratio IC50 [5] |
| --- | --- | --- | --- | --- | --- | --- | --- |
| Nc1ncnc2c1ncn2[C@@H]1O[C@H](COP(=O)(O)CP(=O)(O)O)[C@@H](O)[C@H]1O [PHOSPHOMETHYLPHOSPHONIC ACID ADENOSYL ESTER] | 3.97 | > 100 | 4.63 | – | – | – | – |
| O=c1oc2c(O)c(O)cc3c(=O)oc4c(O)c(O)cc1c4c23 [ELLAGIC ACID] | 1.85 | 0.5 | 0.04 | 150 | 27.4 | 3.7 | 46.5 |
| C=C(C)[C@@H]1CC[C@]2(CO)CC[C@]3(C)[C@H](CC[C@@H]4[C@@]5(C)CC[C@H](O)C(C)(C)[C@@H]5CC[C@]43C)[C@@H]12 [BETULIN] | 22.7 | 49.8 | 50.3 | 95 | 24.6 | – | – |
| Nc1ccn([C@@H]2O[C@H](CO)[C@@H](O)C2(F)F)c(=O)n1 [GEMCITABINE] | – | – | – | 0.23 | 1.15 | – | – |
| O=C(OC[C@H]1O[C@@H](OC(=O)c2cc(O)c(O)c(O)c2)[C@H](OC(=O)c2cc(O)c(O)c(O)c2)[C@@H](OC(=O)c2cc(O)c(O)c(O)c2)[C@@H]1OC(=O)c1cc(O)c(O)c(O)c1)c1cc(O)c(O)c(O)c1 [PENTAGALLOYL GLUCOSE] | 10.5 | 1.56 | > 100 | 72.6 | 9.12 | – | – |
